The molecules below were run against Muscarinic acetylcholine receptor M3 (Cavia porcellus, UniProt Q8VH26) (assay: The compound was tested for antagonistic activity against Muscarinic acetylcholine receptor M3 in guinea pig trachea). Settings: read-out: pA2 (converted).
Format: functional

Muscarinic acetylcholine receptor M3, sequence (Q8VH26 whole entry): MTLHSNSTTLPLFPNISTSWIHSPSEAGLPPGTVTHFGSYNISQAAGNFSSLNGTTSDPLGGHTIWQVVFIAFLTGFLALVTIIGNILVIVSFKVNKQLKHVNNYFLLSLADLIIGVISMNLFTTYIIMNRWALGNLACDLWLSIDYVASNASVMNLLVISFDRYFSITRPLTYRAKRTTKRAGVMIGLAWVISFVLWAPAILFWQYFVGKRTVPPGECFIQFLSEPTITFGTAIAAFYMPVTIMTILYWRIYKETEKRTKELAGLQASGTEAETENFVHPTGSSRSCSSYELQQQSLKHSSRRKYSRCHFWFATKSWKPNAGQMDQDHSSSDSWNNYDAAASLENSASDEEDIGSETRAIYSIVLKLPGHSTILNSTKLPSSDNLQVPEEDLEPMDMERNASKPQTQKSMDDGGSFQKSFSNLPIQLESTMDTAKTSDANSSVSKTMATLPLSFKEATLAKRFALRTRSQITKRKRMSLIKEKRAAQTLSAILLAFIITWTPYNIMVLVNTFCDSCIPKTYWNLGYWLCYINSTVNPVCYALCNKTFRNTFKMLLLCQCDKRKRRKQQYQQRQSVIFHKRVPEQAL

Structure (SMILES)	Kb [nM]
CCN(CC)CCOc1ccccc1C(=O)Cc1ccccc1	214
O=C(Nc1ccccc1)OC1CCCCC1CN1CCOCC1 (stereo not drawn)	2880
CCCOc1ccccc1C(=O)NC1CCCCC1CN1CCCCC1 (stereo not drawn)	14800

— ChEMBL document CHEMBL1132349, “Lead generation using pharmacophore mapping and three-dimensional database searching: application to muscarinic M(3) receptor antagonists” (J Med Chem, 1999)
